The values that follow come from patent US20230174642A1, “AFFINITY-MATURATED ANTI-ASIC1a ANTIBODIES” (SHANGHAITECH UNIVERSITY, priority 2019, published 2023).

What is called inhibition is the relative decrease from the control value, in per cent.

Assay [1] concerns the target T1, ASIC1a (Homo sapiens, UniProt P78348).
T1 construct: expressed in transfected cells
T1 sequence (P78348 1-528): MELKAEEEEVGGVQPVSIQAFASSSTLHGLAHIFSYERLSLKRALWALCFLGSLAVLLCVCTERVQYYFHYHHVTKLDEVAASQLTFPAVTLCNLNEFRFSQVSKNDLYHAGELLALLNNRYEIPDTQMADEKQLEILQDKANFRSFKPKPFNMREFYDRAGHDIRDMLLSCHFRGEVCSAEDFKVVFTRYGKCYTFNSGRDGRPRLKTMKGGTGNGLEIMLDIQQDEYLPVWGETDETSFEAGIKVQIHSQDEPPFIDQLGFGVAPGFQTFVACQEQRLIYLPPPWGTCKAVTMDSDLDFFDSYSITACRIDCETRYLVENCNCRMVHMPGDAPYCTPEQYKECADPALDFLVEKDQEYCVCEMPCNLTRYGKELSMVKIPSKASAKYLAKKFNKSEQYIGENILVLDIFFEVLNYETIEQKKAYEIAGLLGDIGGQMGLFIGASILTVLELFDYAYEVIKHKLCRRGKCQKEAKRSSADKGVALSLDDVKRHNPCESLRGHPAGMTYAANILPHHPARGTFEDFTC
In words: Patch clamp whole-cell recording of acid-induced hASIC1a currents. It is filed as cell-based. Conditions: 30 μM amiloride, positive control; pH 7.4 to pH 6.0; read-out: inhibition of the acid-induced ASIC1a currents. The procedure: FIGS. 4A-4E show the effect of affinity-matured ASC06-IgG1 derivative antibodies on the hASIC1a currents. Shown are the representative current traces recorded from single CHO-K1 cells stably expressing hASIC1a in the absence or presence of 100 nM ASC06-IgG1 (FIG. 4A) or affinity-matured ASC06-IgG1 versions ASC06-01-IgG1 (FIG. 4B), ASC06-02-IgG1 (FIG. 4C), ASC06-03-IgG1 (FIG. 4D), or ASC06-04-IgG1 (FIG. 4E). Amiloride (30 μM) was used as a positive control. “Wash” represents the recovery of the current after the treatment of 100 nM indicated antibody followed by 15 min infusion of washing solution.
Whether the affinity-matured ASC06-IgG1 derivative antibodies have an effect on the acid-induced, hASIC1a-mediated electrical current in cells was tested. An hASIC1a overexpressing stable cell line was used as a model for these studies. Extracellular pH was decreased from pH 7.4 to pH 6.0 and the amplitudes of the hASIC1a-mediated inward currents were recorded in the whole-cell recording mode in the presence of the affinity-matured ASC06-IgG1 derivative antibodies (FIGS. 4A-4E). The ASIC1a inhibitor amiloride (30 μM) was used as a positive control for the inhibition of ASIC1a currents.

Assay [2] has as its target T2, hASIC1a on CHO-K1 cells stably expressing hASIC1a (human, UniProt P78348 1-528).
T2 sequence (looked up): T1 sequence (P78348 1-528)
Briefly: cell-based or functional assay.

As for `N=C(N)NC(=O)c1nc(Cl)c(N)nc1N` [amiloride, reference compound], the inhibition at 30 µM in assay [1] was > 50%.

B1: ASC06-05-IgG1 (antibody, V domains shown)
VH: QVQLQQSGGGLVQPGGSLRLSCAASGFTFSSYAMSWVRQAPGKGLEWVSAISGSGGSTYYADSVKGRFTISRDNSKNTLYLQMNSLRAEDTAVYYCAKDSYFGRAKGSWGQGTLVTVSS
VL: QSALTQPASVSGSPGQSITISCTGTSSDVGAYNYVSWYQQQPGKAPKLMIYGVSNRPSGVSNRFSGSKSGNAASLTISGLQAEDEADYYCSSYTSSSTYVFGTGTKLTVLG
In the case of B1, the “IC50 for the inhibition of ASIC1a currents, FMP assay” value in assay [2] turned out to be 31 nM.
